Source: article PMC11303563 (Communications Medicine, 2024)
Where “and” joins values, the source holds several entries; their conditions need not be identical. Identical values can stand only once.

Tests used:
[1] = tested on: high-fat diet (HFD)-induced obesity model mice; experiment: Serum lipid analysis (total cholesterol, triglycerides) in HFD mice; format: in vivo, C57BL/6J mice; set-up: Serum TC (Fig. 4a), individual mouse values / Serum TG (Fig. 4b), individual mouse values / Serum TC (Fig. 4a), Mean Diff. ND vs. treatment (Tukey) / Serum TC (Fig. 4a), Mean Diff. Vehicle vs. treatment (Tukey) / Serum TC (Fig. 4a), group mean (Mean 2) / Mean Diff., ND vs. treated (Fig. 4b) / Mean Diff., Vehicle vs. treated (Fig. 4b) / Mean (Fig. 4b): unit not given here; details: HFD mice; for Mean (Fig. 4b): group mean, n=10
Experimental: Fig. 4 Effects of TH analogs on the accumulation of lipids in mice. […] After 3 weeks of injection, serum and liver tissues were collected, and the amount of serum cholesterol (a), serum triglycerides (b), liver cholesterol (c), liver triglycerides (d), and liver total lipids (e) were measured.

[2] = tested on: high-fat diet (HFD)-induced obesity model mice; experiment: Oil Red O staining of the liver section; format: in vivo, C57BL/6J mice; details: i.p. 1 µmol/kg·day, 3 weeks
Experimental: 20 µm sections were prepared from frozen liver tissues using Cryostat (CM3050 S, Leica). Sections were affixed to silane-coated glass slides, dried at room temperature, and stored at −80 °C until use. Before staining, sections were fixed with 1% PFA/1 × PBS, pH 7.4 (Gibco) for 5 min, immersed in 1 × PBS for 5 min, distilled water for 5 min, and 60% 2-propanol solution for 1 min. Oil Red O staining solution was prepared by mixing 0.36 g of Oil Red O (Sigma) with 120 mL of 2-propanol and 80 mL of distilled water, allowing the solution to stand at room temperature for 1 h, then filtering the solution and leaving it overnight at 37 °C. Sections were immersed in the Oil Red O staining solution at 37 °C for 15 min, rinsed in 60% 2-propanol for 1 min, and in distilled water for 1 min. Sections were counterstained with Meyer’s hematoxylin. […] The area of red-stained fat droplets was quantified using Image J (National Institutes of Health), and the percentage of the stained area in the total image area was calculated. Nine different parts in three consecutive sections per mouse were analyzed.
Fig. 5 Oil Red O staining of the liver section of mice treated with TH analogs. […] After three weeks of injection, liver tissues were collected, frozen sections were prepared, and subjected to Oil Red O staining (a). Stained areas were quantified and normalized to the total image area. […]

[3] = In vitro blood-brain barrier permeability assay (BBB kit RBT-24H); format: in vitro ADME, rat; details: rat, 10 μM on luminal side, read-out: apparent permeability (Papp)
Experimental: Therefore, we tested BBB transparency in vitro using the BBB kit RBT-24H (PharmaCo-Cell)[35]. […] Blood-brain barrier permeability assay The blood-brain barrier (BBB) transparency of TH analogs was assessed in vitro using RBT-24H (PharmaCo-Cell)[5] according to the manufacturer 's protocol. […] After 30 min, the assay buffer in the wells mimicking the abluminal side was collected, and the concentration of the compounds was measured using liquid chromatography-mass spectrometry (LC-MS). […] These tips were preconditioned with 20 μL of acetonitrile and 20 μL of 0.1% TFA in purified water. 100 μL of the samples were loaded onto the preconditioned tips, washed with 200 μL of DW, and then eluted with 10 μL of acetonitrile. Triazine (1% vol/vol) was added to the eluent as an internal standard. […] 3 μm; Imtakt, Kyoto, Japan). All the experiments were performed using an Ultimate 3000 UHPLC system coupled with a Q Exactive Plus Orbitrap mass spectrometer (Thermo Fisher Scientific). […] Data were shown as mean ± standard deviation (n=3).

[4] = tested on: THR-regulated genes and lipid metabolism-related genes in the liver
[5] = Serum ALT (hepatotoxicity); details: for Serum ALT, group mean (Mean 2): n 10, Vehicle mean […]; for serum ALT level vs vehicle: HFD mice, 3 weeks
Experimental: Male 7-week-old C57BL/6J mice were obtained from a local supplier (Nihon SLC, Shizuoka, Japan). The mice were individually housed in cages (Innocage; ORIENTAL GIKEN) at 23 °C with a 12-h-light–dark cycle starting at 08:00 a.m. […] The injection was prepared by dissolving the compounds in 0.5 N NaOH at a concentration of 100 mM, which was then further diluted with saline to a concentration of either 0.05 or 0.5 mM. The volume of the solution injected was determined based on the body weight of the animal, measured once a week, with 0.05 and 0.5 mM solutions injected at 0.1 and 1 µmol/kg day, respectively. Each group consisted of 10 animals, except for the ND (n = 8) and HFD with saline (vehicle, n = 9) groups. […] In the HFD-treated group, one animal was excluded from the analysis because its body weight was less than two standard deviations below the mean.
The blood samples were left to stand for 1 h at room temperature, then centrifuged at 4 °C for 15 min at 800 × g, and the supernatant was collected. […] Serum ALT levels were measured using Alanine Aminotransferase (ALT or SGPT) Activity Colorimetric/Fluorometric Assay Kit (BioVision) according to the manufacturer’s protocol.
Data are shown as the mean ± SEM (n = 8–10).

[6] = Heart weight (cardiac hypertrophy); details: for Heart weight, group mean (Mean 2): n 10, Vehicle mean 136.7; for heart weight vs vehicle: HFD mice, 3 weeks
Experimental: Male 7-week-old C57BL/6J mice were obtained from a local supplier (Nihon SLC, Shizuoka, Japan). The mice were individually housed in cages (Innocage; ORIENTAL GIKEN) at 23 °C with a 12-h-light–dark cycle starting at 08:00 a.m. […] The injection was prepared by dissolving the compounds in 0.5 N NaOH at a concentration of 100 mM, which was then further diluted with saline to a concentration of either 0.05 or 0.5 mM. The volume of the solution injected was determined based on the body weight of the animal, measured once a week, with 0.05 and 0.5 mM solutions injected at 0.1 and 1 µmol/kg day, respectively. Each group consisted of 10 animals, except for the ND (n = 8) and HFD with saline (vehicle, n = 9) groups.
After three weeks of daily injections, the body weights of the mice were measured. […] Subsequently, the animals were euthanized using deep isoflurane anesthesia, and the liver, heart, and epididymal adipose tissues were removed from the body. […] Hearts were weighed and fixed in 4% paraformaldehyde for 48 h in a cassette (Sakura Finetek Japan, Tokyo, Japan).
Heart weight was measured to assess heart toxicity. Data are shown as the mean ± SEM (n = 8–10). Significant differences among groups are indicated by asterisks (*P < 0.05, and ****P < 0.0001, one-way ANOVA with Tukey’s post-hoc test) (b).

[7] = HFD mice, 1 μmol/kg day, RT-qPCR, reference gene Rps18
[8] = liver gene expression, 1µmol dose group vs. Vehicle
[9] = 0.1 µmol dose group vs. Vehicle

For `O=C(O)Cc1cc(C(F)(F)F)c(Cc2ccc(O)c3ccccc23)c(C(F)(F)F)c1` [ZTA-261], the “Mean (Fig. 4b)” value ([1]; 0.1 µmol) was 84.35, the “Mean (Fig. 4b)” value ([1]; 1 µmol) was 75.25 and the “serum triglyceride level vs vehicle” value ([1]; i.p. 1 µmol/kg day, 3 weeks) was “decreased”. The “Oil Red O-positive area in liver sections vs vehicle” value [2] was “significantly reduced”, the Papp at 30 min, 10 µM [3] was 7.28 ± 2.55 ×10⁻⁶ cm/s and the “Cyp7a1 expression in the liver, individual animal values” ([4]; 1µmol, one value per animal) was 0.6381 and 0.6001 and 0.9755 and 0.7051 and 0.7377 and 0.8699 and 1.225 and 1.875 and 1.688 and 1.407. The “Dio1 expression in the liver, individual animal values” ([4]; 1µmol, one value per animal) was 2.348 and 0.8674 and 3.4594 and 3.712 and 3.243 and 4.342 and 3.767 and 2.33 and 3.714 and 5.338, the “Ldlr expression in the liver, individual animal values” ([4]; 1µmol, one value per animal) was 0.4288 and 1.672 and 1.891 and 1.348 and 1.361 and 2.264 and 2.662 and 1.059 and 1.183 and 1.422 and the “Me1 expression in the liver, individual animal values” ([4]; 1µmol, one value per animal) was 2.009 and 0.7713 and 1.636 and 2.32 and 2.026 and 3.023 and 3.213 and 2.688 and 3.436 and 4.664. For the same molecule, the “Pnpla2 expression in the liver, individual animal values” ([4]; 1µmol, one value per animal) was 1.268 and 0.9327 and 2.591 and 7.772 and 2.012 and 5.634 and 5.017 and 1.649 and 3.705 and 2.077, the “Srebp1c expression in the liver, individual animal values” ([4]; 1µmol, one value per animal) was 0.1054 and 0.05247 and 0.1951 and 0.3686 and 0.2695 and 0.5078 and 0.5858 and 0.293 and 0.5057 and 0.124 and the “Thrsp expression in the liver, individual animal values” ([4]; 1µmol, one value per animal) was 1.26 and 1.164 and 1.998 and 1.521 and 1.182 and 1.374 and 1.7691 and 1.941 and 1.759 and 2.356. The “liver expression of Cyp7a1 vs vehicle” value [4, 7] was “not significantly different”, the “liver expression of Dio1 vs vehicle” value [4, 7] was “significantly upregulated” and the “liver expression of Ldlr vs vehicle” value [4, 7] was “not significantly different”. For the same molecule, the “liver expression of Me1 vs vehicle” value [4, 7] was “significantly upregulated”, the “liver expression of Pnpla2 vs vehicle” value [4, 7] was “significantly higher” and the “liver expression of Srebp1c vs vehicle” value [4, 7] was “Although not statistically significant, the ZTA-261-treated group showed decreased Srebp1c expression”. For the same molecule, the “liver expression of Thrsp vs vehicle” value [4, 7] was “increased”, the “Pnpla2, Dunn's multiple comparisons test, Mean rank diff. (Vehicle vs. compound)” value [4, 8] was -17.5 and the “Srebp1c, Dunn's multiple comparisons test, Mean rank diff. (Vehicle vs. compound)” value [4, 8] was 13.17. The “Pnpla2, Mean rank of treatment group (Mean rank 2)” value ([4]; liver gene expression, 1µmol dose group, Vehicle mean rank 8) was 25.5, the “Srebp1c, Mean rank of treatment group (Mean rank 2)” value ([4]; liver gene expression, 1µmol dose group, Vehicle mean rank […]) was 20.5 and the “Serum ALT (Fig.7a), individual animal values” ([5]; 0.1 µmol dose group) was 6.621 and 5.838 and 5.844 and 8.207 and 7.718 and 6.528 and 9.431 and 12.922 and 7.155 and 6.407. For the same molecule, the “Serum ALT, Tukey's multiple comparisons test, Mean Diff. (Vehicle vs. compound)” value [5, 9] was 3.439, the “Serum ALT, group mean (Mean 2)” value ([5]; 0.1 µmol dose group) was 7.667 and the “Serum ALT (Fig.7a), individual animal values” ([5]; 1 µmol dose group) was 16.644 and 8.576 and 9.103 and 8.327 and 7.596 and 9.601 and 12.863 and 9.311 and 13.948 and 12.038. The “Serum ALT, Tukey's multiple comparisons test, Mean Diff. (Vehicle vs. compound)” value ([5]; 1 µmol dose group vs. Vehicle) was 0.3054, the “Serum ALT, group mean (Mean 2)” value ([5]; 1 µmol dose group) was 10.8 and the “serum ALT level vs vehicle” value ([5]; i.p. 0.1 µmol/kg day) was “did not show a significant increase”. The “serum ALT level vs vehicle” value ([5]; i.p. 1 µmol/kg day) was “did not show a significant increase”, the “Heart weight (Fig. 7b), individual animal values” ([6]; 0.1 µmol dose group) was 120.4 and 125.5 and 128.7 and 142.9 and 126.8 and 139.4 and 134.1 and 147.6 and 135.4 and 150.2 and the “Heart weight, Tukey's multiple comparisons test, Mean Diff. (Vehicle vs. compound)” value [6, 9] was 1.622. For the same molecule, the “Heart weight, group mean (Mean 2)” value ([6]; 0.1 µmol dose group) was 135.1, the “Heart weight (Fig. 7b), individual animal values” ([6]; 1 µmol dose group) was 135 and 135.2 and 126.1 and 150.6 and 150.7 and 152.1 and 152.8 and 145.4 and 154.6 and 138.8 and the “Heart weight, Tukey's multiple comparisons test, Mean Diff. (Vehicle vs. compound)” value ([6]; 1 µmol dose group vs. Vehicle) was -7.408. For the same molecule, the “Heart weight, group mean (Mean 2)” value ([6]; 1 µmol dose group) was 144.1, the “heart weight vs vehicle” value ([6]; i.p. 0.1 µmol/kg day) was “No such effect” and the “heart weight vs vehicle” value ([6]; i.p. 1 µmol/kg day) was “No such effect”.
